Source: patent US8288371B2, “Ortho pyrrolidine, benzyl-substituted heterocycle CCR1 antagonists for autoimmune diseases and inflammation” (Pharmacopeia, LLC, priority 2007, dated 2012)

Target: T1, human CCR1 (Homo sapiens, UniProt P32246)
T1 sequence (P32246 1-355): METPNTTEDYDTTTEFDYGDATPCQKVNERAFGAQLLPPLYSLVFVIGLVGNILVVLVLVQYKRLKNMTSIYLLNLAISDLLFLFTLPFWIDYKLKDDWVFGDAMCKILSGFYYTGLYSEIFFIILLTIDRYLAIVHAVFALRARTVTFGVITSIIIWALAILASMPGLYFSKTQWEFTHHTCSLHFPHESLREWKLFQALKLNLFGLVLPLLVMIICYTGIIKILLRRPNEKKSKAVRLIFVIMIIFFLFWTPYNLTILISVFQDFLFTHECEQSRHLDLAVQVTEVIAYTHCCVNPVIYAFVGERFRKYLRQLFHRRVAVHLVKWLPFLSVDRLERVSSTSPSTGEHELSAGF
Test: CCR1 binding protocol (SPA, [125I]-MIP-1α displacement)
Settings: cell membrane expressing human CCR1, 0.1 nM [125I]-MIP-1α, 4 hours at ambient temperature; read-out: Relative potency (IC50)
Method in brief: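 Human CCR1 membranes (0.5 μg/well) on SPA beads were incubated with compound and 0.1 nM [125I]-MIP-1α (final) for 4 h at ambient temperature. Buffer was Tris pH 7.4 with NaCl, KCl, MnCl and 0.1% BSA. IC50 came from ½-log compound dilutions (10 mM top DMSO stock) by displacement of bound radioligand.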

| IC50 [µM] | SMILES |
| --- | --- |
| 0.5 to 5 | COC(=O)c1cc(C)ccc1NC(=O)N1CCC[C@@H]1c1nnc(C)n1Cc1ccc(Cl)cc1 [Compound 248] |
| 0.5 to 5 | O=C(NCc1ccc(C(F)(F)F)cc1)N1CCC[C@@H]1c1nnc(C(F)(F)F)n1Cc1ccc(Cl)cc1 [Compound 249] |
| 0.5 to 5 | Cc1nnc([C@H]2CCCN2C(=O)Nc2cncnc2)n1Cc1ccc(Cl)cc1 [Compound 250] |
| 0.5 to 5 | Cc1cccc(C(=O)O)c1NC(=O)N1CCC[C@@H]1c1nnc(C)n1Cc1ccc(Cl)cc1 [Compound 251] |
| 0.5 to 5 | Cc1nnc([C@H]2CCCN2C(=O)NC(C)C)n1Cc1ccc(Cl)cc1 [Compound 252] |
| 0.5 to 5 | Cc1nnc([C@H]2CCCN2C(=O)Nc2ccccn2)n1Cc1ccc(Cl)cc1 [Compound 253] |
| 0.5 to 5 | Cc1cc(C)c(NC(=O)N2CCC[C@@H]2c2nnc(C)n2Cc2ccc(Cl)cc2)c(C(=O)O)c1 [Compound 254] |
| 0.5 to 5 | CSc1nc(Cl)cc(NC(=O)N2CCC[C@@H]2c2nnc(C)n2Cc2ccc(Cl)cc2)n1 [Compound 255] |
| 0.5 to 5 | Cc1cc(NC(=O)N2CCC[C@@H]2c2nnc(C)n2Cc2ccc(Cl)cc2)nc(C)n1 [Compound 256] |
| 0.5 to 5 | Cc1nnc([C@H]2CCCN2C(=C[N+](=O)[O-])Nc2ccc(C(F)(F)F)cc2)n1Cc1ccc(Cl)cc1 [Compound 257] |
| 0.5 to 5 | Cc1nnc([C@H]2CCCN2C(=O)Nc2ccncn2)n1Cc1ccc(Cl)cc1 [Compound 258] |
| < 0.05 | Cc1noc(C)c1NC(=O)N1CCC[C@@H]1c1nnc(Cl)n1Cc1ccc(Cl)cc1 [Compound 259] |
| 0.05 to 0.5 | Cc1nnc([C@H]2CCCN2/C(=N\C#N)N[C@H]2CCOc3cc(C(F)(F)F)ccc32)n1Cc1ccc(Cl)cc1 [Compound 260] |
| 0.05 to 0.5 | Cc1nnc([C@H]2CCCN2C(=O)N[C@H]2CCCOc3ccccc32)n1Cc1ccc(Cl)cc1 [Compound 261] |
| 0.5 to 5 | Cc1nnc([C@H]2CCCN2C(=O)N[C@@H]2CC(C)(C)Oc3cc(C(F)(F)F)ccc32)n1Cc1ccc(Cl)cc1 [Compound 262] |
| < 0.05 | Cc1nnc([C@H]2CCCN2C(=O)NC2(c3ccc(C(F)(F)F)cc3)CC2)n1Cc1ccc(Cl)cc1 [Compound 263] |
| 0.5 to 5 | Cc1nnc([C@H]2CCCN2C(=O)NC2(c3ccccc3C(F)(F)F)CC2)n1Cc1ccc(Cl)cc1 [Compound 264] |
| < 0.05 | Cc1nnc([C@H]2CCCN2C(=O)NC2(c3cccc(C(F)(F)F)c3)CC2)n1Cc1ccc(Cl)cc1 [Compound 265] |
| < 0.05 | Cc1nnc([C@H]2CCCN2C(=O)NC2(c3cccc(F)c3)CC2)n1Cc1ccc(Cl)cc1 [Compound 266] |
| 0.05 to 0.5 | Cc1nnc([C@H]2CCCN2C(=O)NC2CCCc3cccc(Cl)c32)n1Cc1ccc(Cl)cc1 (some centres unmarked) [Compound 267] |
| < 0.05 | Cc1nnc([C@H]2CCCN2C(=O)N[C@H]2CC(C)(C)Oc3cc(C(F)(F)F)ccc32)n1Cc1ccc(Cl)cc1 [Compound 268] |
| 0.05 to 0.5 | Cc1ccc2c(c1)CCCC2NC(=O)N1CCC[C@@H]1c1nnc(C)n1Cc1ccc(Cl)cc1 (some centres unmarked) [Compound 269] |
| < 0.05 | Cc1nnc([C@H]2CCCN2C(=O)NC2(c3ccc(F)cc3)CC2)n1Cc1ccc(Cl)cc1 [Compound 270] |

| IC50 [µM] | SMILES |
| --- | --- |
| < 0.05 | Cc1nnc([C@H]2CCCN2C(=O)NC2(c3ccc(Cl)cc3)CC2)n1Cc1ccc(Cl)cc1 [Compound 271] |
| 0.05 to 0.5 | Cc1nnc([C@H]2CCCN2C(=O)NC2CC(C)(C)Oc3cc(C(F)(F)F)ccc32)n1Cc1ccc(Cl)cc1 (some centres unmarked) [Compound 272] |
| < 0.05 | Cc1nnc([C@H]2CCCN2C(=O)NC2(c3ccccc3F)CC2)n1Cc1ccc(Cl)cc1 [Compound 273] |
| 0.05 to 0.5 | Cc1nnc([C@H]2CCCN2C(=O)Nc2ccc3c(c2)CC(C)O3)n1Cc1ccc(Cl)cc1 (some centres unmarked) [Compound 274] |
| < 0.05 | Cc1nnc([C@H]2CCCN2C(=O)NC(C)(C)c2ccc(F)cc2)n1Cc1ccc(Cl)cc1 [Compound 275] |
| < 0.05 | Cc1onc(-c2ccccc2Cl)c1NC(=O)N1CCC[C@@H]1c1nnc(C)n1Cc1ccc(Cl)cc1 [Compound 276] |
| 0.05 to 0.5 | Cc1nnc([C@H]2CCCN2C(=O)Nc2ccc(C(F)(F)F)cn2)n1Cc1ccc(Cl)cc1 [Compound 277] |
| < 0.05 | Cc1nnc([C@H]2CCCN2C(=O)Nc2ccc(C(C)C)cc2C(F)(F)F)n1Cc1ccc(Cl)cc1 [Compound 278] |
| 0.05 to 0.5 | CNC(=O)c1cc(C)ccc1NC(=O)N1CCC[C@@H]1c1nnc(C)n1Cc1ccc(Cl)cc1 [Compound 279] |
| < 0.05 | CC[C@H](NC(=O)N1CCC[C@@H]1c1nnc(C)n1Cc1ccc(Cl)cc1)c1cc2cc(C(F)(F)F)ccc2o1 [Compound 280] |
| < 0.05 | Cc1cccnc1NC(=O)N1CCC[C@@H]1c1nnc(C)n1Cc1ccc(Cl)cc1 [Compound 281] |
| 0.5 to 5 | Cc1nnc([C@H]2CCCN2C(=O)Nc2cc(C(=O)O)ccc2F)n1Cc1ccc(Cl)cc1 [Compound 282] |
| 0.05 to 0.5 | CC(=O)N1CCC[C@@H](NC(=O)N2CCC[C@@H]2c2nnc(C)n2Cc2ccc(Cl)cc2)C1 [Compound 283] |
| < 0.05 | COC(=O)c1ccc(F)c(NC(=O)N2CCC[C@@H]2c2nnc(C)n2Cc2ccc(Cl)cc2)c1 [Compound 284] |
| < 0.05 | CC[C@@H](NC(=O)N1CCC[C@@H]1c1nnc(C)n1Cc1ccc(Cl)cc1)c1ccccc1 [Compound 285] |
| < 0.05 | COC(=O)c1ccc(Cl)c(NC(=O)N2CCC[C@@H]2c2nnc(C)n2Cc2ccc(Cl)cc2)c1 [Compound 286] |
| < 0.05 | CCc1noc(CC)c1NC(=O)N1CCC[C@@H]1c1nnc(C)n1Cc1ccc(Cl)cc1 [Compound 287] |
| < 0.05 | Cc1cccc(-c2noc(C)c2NC(=O)N2CCC[C@@H]2c2nnc(C)n2Cc2ccc(Cl)cc2)c1 [Compound 288] |
| < 0.05 | CCc1noc(C)c1NC(=O)N1CCC[C@@H]1c1nnc(C)n1Cc1ccc(Cl)cc1 [Compound 290] |
| < 0.05 | Cc1onc(-c2ccccc2F)c1NC(=O)N1CCC[C@@H]1c1nnc(C)n1Cc1ccc(Cl)cc1 [Compound 291] |
| 0.05 to 0.5 | COC1CCC(NC(=O)N2CCC[C@@H]2c2nnc(C)n2Cc2ccc(Cl)cc2)CC1 (some centres unmarked) [Compound 292] |
| < 0.05 | Cc1onc(-c2ccc(Cl)cc2)c1NC(=O)N1CCC[C@@H]1c1nnc(C)n1Cc1ccc(Cl)cc1 [Compound 293] |
| 0.05 to 0.5 | Cc1nnc([C@H]2CCCN2C(=O)Nc2cc(C(N)=O)ccc2F)n1Cc1ccc(Cl)cc1 [Compound 294] |

| IC50 [µM] | SMILES |
| --- | --- |
| 0.05 to 0.5 | Cc1ccc(NC(=O)N2CCC[C@@H]2c2nnc(C)n2Cc2ccc(Cl)cc2)c(C(=O)N(C)C)c1 [Compound 295] |
| < 0.05 | Cc1cc(C)c(NC(=O)N2CCC[C@@H]2c2nnc(C)n2Cc2ccc(Cl)cc2)c(C)n1 [Compound 296] |
| < 0.05 | Cc1onc(-c2ccc(F)cc2)c1NC(=O)N1CCC[C@@H]1c1nnc(C)n1Cc1ccc(Cl)cc1 [Compound 297] |
| 0.5 to 5 | Cc1nnc([C@H]2CCCN2C(=O)Nc2cc(C(=O)O)ccc2Cl)n1Cc1ccc(Cl)cc1 [Compound 298] |
| 0.05 to 0.5 | Cc1cnccc1NC(=O)N1CCC[C@@H]1c1nnc(C)n1Cc1ccc(Cl)cc1 [Compound 299] |
| 0.05 to 0.5 | Cc1cc(C(N)=O)ccc1NC(=O)N1CCC[C@@H]1c1nnc(C)n1Cc1ccc(Cl)cc1 [Compound 300] |
| 0.05 to 0.5 | CNC(=O)c1ccc(F)c(NC(=O)N2CCC[C@@H]2c2nnc(C)n2Cc2ccc(Cl)cc2)c1 [Compound 301] |
| 0.05 to 0.5 | Cc1nnc([C@H]2CCCN2C(=O)Nc2cc(C(=O)N(C)C)ccc2F)n1Cc1ccc(Cl)cc1 [Compound 302] |
| < 0.05 | COc1ccc(-c2noc(C)c2NC(=O)N2CCC[C@@H]2c2nnc(C)n2Cc2ccc(Cl)cc2)cc1 [Compound 303] |
| < 0.05 | Cc1onc(-c2ccncc2)c1NC(=O)N1CCC[C@@H]1c1nnc(C)n1Cc1ccc(Cl)cc1 [Compound 304] |
| 0.5 to 5 | CCOC1CCC(NC(=O)N2CCC[C@@H]2c2nnc(C)n2Cc2ccc(Cl)cc2)CC1 (some centres unmarked) [Compound 305] |
| < 0.05 | Cc1onc(-c2cccnc2)c1NC(=O)N1CCC[C@@H]1c1nnc(C)n1Cc1ccc(Cl)cc1 [Compound 306] |
| < 0.05 | Cc1nnc([C@H]2CCCN2C(=O)N[C@@H](C)c2cc3cc(Cl)ccc3o2)n1Cc1ccc(Cl)cc1 [Compound 307] |
| < 0.05 | O=C(N[C@H]1CCOc2cc(C(F)(F)F)ccc21)N1CCC[C@@H]1c1nnc(CO)n1Cc1ccc(Cl)cc1 [Compound 308] |
| < 0.05 | Cc1noc(-c2ccccc2)c1NC(=O)N1CCC[C@@H]1c1nnc(CO)n1Cc1ccc(Cl)cc1 [Compound 309] |
| 0.05 to 0.5 | O=C(Nc1ccc(Cl)cc1F)N1CCC[C@@H]1c1nnc(CO)n1Cc1ccc(Cl)cc1 [Compound 310] |
| 0.05 to 0.5 | CCc1nnc([C@H]2CCCN2C(=O)NCc2ccc(C(F)(F)F)cc2)n1Cc1ccc(Cl)cc1 [Compound 311] |
| < 0.05 | O=C(NCc1ccc(C(F)(F)F)cc1)N1CCC[C@@H]1c1nnc(CO)n1Cc1ccc(Cl)cc1 [Compound 312] |
| < 0.05 | O=C(NCc1ccc(Cl)cc1Cl)N1CCC[C@@H]1c1nnc(CO)n1Cc1ccc(Cl)cc1 [Compound 313] |
| 0.05 to 0.5 | CC[C@H](NC(=O)N1CCC[C@@H]1c1nnc(C)n1Cc1ccc(Cl)cc1)c1ccc(C(F)(F)F)c(F)c1 [Compound 314] |
| 0.05 to 0.5 | CNC(=O)c1ccc(Cl)c(NC(=O)N2CCC[C@@H]2c2nnc(C)n2Cc2ccc(Cl)cc2)c1 [Compound 315] |
| < 0.05 | Cc1ccnc(C)c1NC(=O)N1CCC[C@@H]1c1nnc(C)n1Cc1ccc(Cl)cc1 [Compound 316] |
